In the supplement of paper PMC10307832:

How the values were obtained:
Experiment in all cases: relative viability (nuclei count vs DMSO), 5 days (fraction); higher = more cells survive
[1] = system: EPLC-272H
Method in brief: (§1)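 Lung cancer cell lines, seeded in 1536-well plates, were treated the following day by pin tool with a single drug or with five library-drug doses (not always all listed) in √10 steps on top of a fixed anchor-drug dose. Cells were fixed and nuclei stained in one step after 5 days, and nuclei were counted. Relative viability is the nuclei count for treated wells divided by that for vehicle wells, reported as medians of duplicate plates.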

[2] = system: NCI-H2023
Method in brief: as §1

[3] = system: SK-LU-1
Method in brief: as §1

[4] = system: NCI-H2085
Method in brief: as §1

[5] = system: PC-14
Method in brief: as §1

[6] = system: H3255
Method in brief: as §1

[7] = system: NCI-H647
Method in brief: as §1

[8] = system: NCI-H1734
Method in brief: as §1

[9] = system: SW 1573
Method in brief: as §1

[10] = system: NCI-H322M
Method in brief: as §1

[11] = system: NCI-H661
Method in brief: as §1

[12] = system: NCI-H1993
Method in brief: as §1

[13] = system: NCI-H2126
Method in brief: as §1

[14] = system: NCI-H2347
Method in brief: as §1

[15] = system: LCLC-97TM1
Method in brief: as §1

[16] = system: NCI-H727
Method in brief: as §1

[17] = system: EMC-BAC-2
Method in brief: as §1

[18] = system: NCI-H1915
Method in brief: as §1

[19] = system: LXF-289
Method in brief: as §1

[20] = system: NCI-H2009
Method in brief: as §1

[21] = system: HOP-62
Method in brief: as §1

COc1nc(C)cnc1NS(=O)(=O)c1cccnc1-c1ccc(-c2nnco2)cc1 [Zibotentan] + O=C(c1cc(Cc2n[nH]c(=O)c3ccccc23)ccc1F)N1CCN(C(=O)C2CC2)CC1 [Olaparib] (partner 8 µM)
relative viability ([1]; first compound 0.253 µM): 0.732 | relative viability ([1]; first compound 0.8 µM): 0.991 | relative viability ([1]; first compound 2.53 µM): 0.754 | relative viability ([2]; first compound 0.08 µM): 0.438 | relative viability ([2]; first compound 0.253 µM): 0.415 | relative viability ([2]; first compound 0.8 µM): 0.516 | relative viability ([2]; first compound 2.53 µM): 0.469 | relative viability ([3]; first compound 0.08 µM): 0.507 | relative viability ([3]; first compound 0.253 µM): 0.477 | relative viability ([3]; first compound 0.8 µM): 0.579 | relative viability ([3]; first compound 2.53 µM): 0.615 | relative viability ([4]; first compound 0.08 µM): 0.742 | relative viability ([4]; first compound 0.253 µM): 0.734 | relative viability ([4]; first compound 0.8 µM): 0.856 | relative viability ([4]; first compound 2.53 µM): 0.801 | relative viability ([5]; first compound 0.08 µM): 0.206 | relative viability ([5]; first compound 0.253 µM): 0.271 | relative viability ([5]; first compound 0.8 µM): 0.276 | relative viability ([5]; first compound 2.53 µM): 0.315 | relative viability ([6]; first compound 0.08 µM): 0.552 | relative viability ([6]; first compound 0.253 µM): 0.529 | relative viability ([6]; first compound 0.8 µM): 0.588 | relative viability ([6]; first compound 2.53 µM): 0.56 | relative viability ([7]; first compound 0.08 µM): 0.592 | relative viability ([7]; first compound 0.253 µM): 0.421 | relative viability ([7]; first compound 0.8 µM): 0.665 | relative viability ([7]; first compound 2.53 µM): 0.494 | relative viability ([8]; first compound 0.08 µM): 0.593 | relative viability ([8]; first compound 0.253 µM): 0.588 | relative viability ([8]; first compound 0.8 µM): 0.653 | relative viability ([8]; first compound 2.53 µM): 0.699 | relative viability ([9]; first compound 0.08 µM): 0.557 | relative viability ([9]; first compound 0.8 µM): 0.544 | relative viability ([9]; first compound 2.53 µM): 0.459 | relative viability ([10]; first compound 0.08 µM): 0.758 | relative viability ([10]; first compound 0.253 µM): 0.659 | relative viability ([10]; first compound 0.8 µM): 0.949 | relative viability ([10]; first compound 2.53 µM): 0.727 | relative viability ([11]; first compound 0.08 µM): 0.776 | relative viability ([11]; first compound 0.253 µM): 0.677 | relative viability ([11]; first compound 0.8 µM): 0.791 | relative viability ([11]; first compound 2.53 µM): 0.751 | relative viability ([12]; first compound 0.08 µM): 1.01 | relative viability ([12]; first compound 0.253 µM): 0.842 | relative viability ([12]; first compound 0.8 µM): 0.853 | relative viability ([12]; first compound 2.53 µM): 1.08 | relative viability ([13]; first compound 0.08 µM): 0.945 | relative viability ([13]; first compound 0.253 µM): 0.942 | relative viability ([13]; first compound 0.8 µM): 0.89 | relative viability ([13]; first compound 2.53 µM): 0.951 | relative viability ([14]; first compound 0.08 µM): 0.47 | relative viability ([14]; first compound 0.253 µM): 0.596 | relative viability ([14]; first compound 0.8 µM): 0.635 | relative viability ([14]; first compound 2.53 µM): 0.615 | relative viability ([15]; first compound 0.08 µM): 0.383 | relative viability ([15]; first compound 0.253 µM): 0.393 | relative viability ([15]; first compound 0.8 µM): 0.433 | relative viability ([15]; first compound 2.53 µM): 0.385 | relative viability ([16]; first compound 0.08 µM): 0.712 | relative viability ([16]; first compound 0.253 µM): 0.586 | relative viability ([16]; first compound 0.8 µM): 0.661 | relative viability ([16]; first compound 2.53 µM): 0.868 | relative viability ([17]; first compound 0.08 µM): 0.519 | relative viability ([17]; first compound 0.8 µM): 0.562 | relative viability ([17]; first compound 2.53 µM): 0.461 | relative viability ([18]; first compound 0.08 µM): 0.31 | relative viability ([18]; first compound 0.253 µM): 0.277 | relative viability ([18]; first compound 0.8 µM): 0.254 | relative viability ([18]; first compound 2.53 µM): 0.24 | relative viability ([19]; first compound 0.08 µM): 1.01 | relative viability ([19]; first compound 0.253 µM): 1 | relative viability ([19]; first compound 0.8 µM): 1.14 | relative viability ([19]; first compound 2.53 µM): 1.09 | relative viability ([20]; first compound 0.08 µM): 0.688 | relative viability ([20]; first compound 0.253 µM): 0.589 | relative viability ([20]; first compound 0.8 µM): 0.671 | relative viability ([20]; first compound 2.53 µM): 0.787 | relative viability ([21]; first compound 0.08 µM): 0.429 | relative viability ([21]; first compound 0.253 µM): 0.34 | relative viability ([21]; first compound 0.8 µM): 0.503 | relative viability ([21]; first compound 2.53 µM): 0.502
